# In patent US12502361B2, “Method for treating dengue virus infection” (priority 2021, dated 2025):
# Like-named read-outs stand apart in the source and are kept apart here.
# Experiments:
# phospho-STAT1 and STAT1 = conditions: RAW 264.7 cells, propofol 10 or 25 μg/ml, DENV2 MOI=10, 24 h
# Protocol: (§1) RAW 264.7 cells were pretreated without or with propofol (10 or 25 μg/ml) followed by infection with DENV2 (MOI=10) for 24 h. […] Quantitative data are presented as the mean±SD of the experiments (n=3). *p<0.05; ***p<0.001.
# (§2) Cells were collected and extracted with lysis buffer containing a protease inhibitor cocktail (Sigma-Aldrich). The processed proteins were separated by 10% SDS polyacrylamide gel electrophoresis followed by transfer to a polyvinylidene difluoride (PVDF) membrane (Millipore). Then, the PVDF membrane was blocked with 5% nonfat milk in 0.05% Tween-20-containing Tris-buffer-based saline (TBS-T) at room temperature for 1 h. Next, the membrane was washed three times with TBS-T buffer and immunohybridized with the indicated primary antibodies at 4° C. overnight. Then, the membrane was washed with TBS-T buffer three times, followed by incubation with the indicated HRP-conjugated secondary antibodies at room temperature for 1 h. The antibody-protein complexes on the PVDF membrane were detected using an ECL Western blot detection kit (PerkinElmer). The signals of the identified proteins were captured with a film exposure system.
# (§3) In this study, RAW 264.7 cells were pretreated with or without propofol (10 or 25 μg/ml) followed by infection with DENV for 24 h.
# TNF-α [1] = conditions: cecal ligation and puncture-administrated rat liver; cited from earlier work
# viral dsRNA = assay: dsRNA immunostaining in DENV2-infected BHK-21 cells; type: cell-based, Dengue virus serotype 2; conditions: BHK-21 cells pretreated 1 h, DENV2 infection 6 h
# Protocol: DAPI was used to label nuclear DNA. […] Scale bar: 100 μm.
# Cells were washed with ice-cold PBS 3 times and fixed with 4% paraformaldehyde (Sigma-Aldrich) at room temperature for 15 minutes. Then, the cells were washed 3 times with ice-cold PBS and permeabilized with permeabilization buffer (PBS containing 1% Triton X-100) at room temperature for 5 minutes. The cells were then washed 3 times with ice-cold PBS and immunoblocked with blocking buffer (PBS containing 1% BSA and 0.01% Triton X-100) at 4° C. for 30 minutes. Next, the cells were washed 3 times with ice-cold PBS and immunohybridized with mouse anti-dsRNA J2 primary antibody at 4° C. overnight. Subsequently, the cells were washed 3 times with ice-cold PBS and stained with Alexa Fluor 488-conjugated goat anti-mouse antibody (Thermo Fisher Scientific) at room temperature for 15 minutes. The cells were washed 3 times with ice-cold PBS and then visualized with fluorescence or confocal microscopy. DAPI (Sigma-Aldrich) was used for nuclear staining.
# Following endocytosis, the viral genome is released into the cytoplasm and undergoes genome replication (Solomon et al., J Infect, 42, 2001, 104-115).
# [2] = tested on: luciferase-expressing DENV replicon; conditions: BHK-21-SGR replicon cells treated with or without propofol
# Protocol: Baby hamster kidney (BHK)-21 fibroblasts (ATCC, CCL10) were maintained in Dulbecco's modified Eagle's medium (DMEM; Thermo Fisher Scientific) containing 10% heat-inactivated fetal bovine serum (FBS, Biological Industries) and 1% penicillin-streptomycin (Thermo Fisher Scientific) at 37° C. in 5% CO2. BHK-21 cells harboring a luciferase-expressing DENV replicon (BHK-D2-Fluc-SGR-Neo-1) were maintained in DMEM with 10% heat-inactivated FBS, 1% penicillin-streptomycin, and 0.4 mg/ml G418 agent (Cat# A1720, Sigma-Aldrich) at 37° C. in 5% CO2.
# BHK-D2-Fluc-SGR-Neo-1 cells (replicons) were seeded in 96-well plates at 3,000 cells/well overnight.
# To assess propofol's inhibitory activity on DENV infection, we next used BHK-21-SGR cells, a cellular replicon-based reporter assay, to examine propofol's translational targets.
# DENV NS1 = conditions: BHK-21 cells pretreated 1 h, DENV2 MOI=1, 24 h post-infection
# Protocol: as §2
# endosomal acidification = assay: Acridine orange staining of endosomal acidification in DENV-infected BHK-21 cells; type: cell-based, hamster; conditions: BHK-21 cells pretreated 1 h, DENV infection 2 h
# Protocol: Hoechst was used to label nuclear DNA. Scale bar: 100 μm.
# Cells were washed with HBSS (Thermo Fisher Scientific) once and then stained with acridine orange agent (Sigma-Aldrich) and Hoechst 33258 (Thermo Fisher Scientific) in an incubator at 37° C. in 5% CO2. After 45 minutes, the cells were washed with HBSS once and rinsed with HBSS. Subsequently, cells were visualized with a fluorescence microscope (EVOS). Hoechst 33258 was used for nuclear staining.
# The endosomal acidification step is critical for DENV uncoating to release the viral genome for further replication in the cytoplasm (Solomon et al., J Infect, 42, 2001, 104-115). Therefore, the pH-sensitive dye acridine orange (AO) was used to explore whether propofol affects the early stages of DENV infection accordingly (Kao et al., PLoS Negl Trop Dis, 12, 2018, e0006715).
# TNF-α [3] = conditions: CoCl2-treated hypoxic BV2 microglia; cited from earlier work
# BHK-21 cells = conditions: propofol 1 to 50 μg/ml, 24 h
# Protocol: Quantitative data are presented as the mean±SD of at least three independent experiments (n=3). ***p<0.001. ns, not significant.
# According to the manufacturer's instructions, cell cytotoxicity was assessed using Cytotoxicity Detection Kit assays (Roche Diagnostics, Lewes, UK).
# TNF-α [4] = conditions: RAW 264.7 cells, propofol 10 or 25 μg/ml, DENV2 MOI=10, 24 h
# Protocol: as §1
# According to the manufacturer's instruction, samples were harvested, and the concentration of mouse TNFα was determined using ELISA kit (Cat#88-7324-88, eBioscience).
# as §3
# DENV2 = conditions: BHK-21 cells pretreated 1 h, DENV2 MOI=1, 24 h; doses of 5, 10, 25 and 50 μg/ml
# Protocol: Baby hamster kidney (BHK)-21 fibroblasts (ATCC, CCL10) were maintained in Dulbecco's modified Eagle's medium (DMEM; Thermo Fisher Scientific) containing 10% heat-inactivated fetal bovine serum (FBS, Biological Industries) and 1% penicillin-streptomycin (Thermo Fisher Scientific) at 37° C. in 5% CO2. […] The Aedes albopictus clone mosquito C6/36 cells (ATCC, CRL1660) were maintained in Minimum Essential Medium (MEM; Thermo Fisher Scientific) containing 10% heat-inactivated FBS, 1% penicillin-streptomycin (Thermo Fisher Scientific), 1% sodium pyruvate (Cat#11360-070, Thermo Fisher Scientific), 1% 4-(2-hydroxyethyl) piperazineethanesulfonic acid (HEPES; Cat#15630-080, Thermo Fisher Scientific) and 1% nonessential amino acids (NEAA; Cat#11140-035, Thermo Fisher Scientific) at 28° C. in 5% CO2. Dengue virus serotype 2 (DENV2, strain PL046) was obtained from Center Disease Control in Taiwan and propagated in a C6/36 cell monolayer at a multiplicity of infection (MOI) of 0.01. After incubation (28° C. in 5% CO2) for 5 days, the viral supernatants were collected and filtered with a 0.22 μm filter and then stored at −80° C. until use. Viral titers were determined by plaque assay using BHK-21 cells.
# BHK-21 cells were grown in a monolayer in a 12-well plate at 7×10^4 cells/well. […]
SMILES,protein expressions of phospho-STAT1 and STAT1 (western blot) (phospho-STAT1 and STAT1),gene and cytokine productions of TNF-α (TNF-α [1]),"viral dsRNA expression (immunostaining, MFI) (viral dsRNA)",luciferase activity of replicons (viral protein translation) [2],viral NS1 protein expression (western blot) (DENV NS1),endosomal acidification (acridine orange staining) (endosomal acidification),gene and cytokine productions of TNF-α (TNF-α [3]),cytotoxicity (LDH assay) (BHK-21 cells),mouse TNF-α production (ELISA) (TNF-α [4]),"DENV virion release (viral titer, plaque assay) (DENV2)"
"CC(C)c1cccc(C(C)C)c1O [propofol, 2,6-diisopropylphenol]",inhibited by propofol treatment,reduces both the gene and cytokine productions of TNF-α,does not affect blocking DENV viral dsRNA replication,no remarkable difference,decreased in a dose-dependent manner,does not affect endosomal acidification,reduces both the gene and cytokine productions of TNF-α,did not cause cytotoxicity,reduced the cytokine levels in a dose-dependent manner,significantly (p<0.001) reduced DENV virion release
"CO/C1=C\C(C)=C\[C@@H](C)[C@@H](O)[C@@H](C)C/C(C)=C/C=C/[C@H](OC)[C@@H]([C@@H](C)[C@@H](O)[C@H](C)[C@@]2(O)C[C@@H](O)[C@H](C)[C@@H](C(C)C)O2)OC1=O [Baf A1, bafilomycin A1]",,,reduced dsRNA expression,,,endosome acidification was blocked,,,,
